The values that follow come from PMC6934184, “Selective DNA-PKcs inhibition extends the therapeutic index of localized radiotherapy and chemotherapy” (The Journal of Clinical Investigation, 2019).

This assay has as its target T1, ERBB2 (HER2) (Homo sapiens, UniProt P04626).
T1 construct: purchased Thermo Fisher Scientific (Life Technologies) SelectScreen
The assay is described as follows: SelectScreen Z'LYTE. Format: biochemical. The procedure, abridged: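 NU5455 was profiled across the SelectScreen Broad panel of kinase activity and binding assays. Z'LYTE reactions such as CSF1R ran at apparent Km ATP, while the Adapta CAMK1 assay used ATP listed as 10. Values are given as percent.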

T1 sequence (P04626 23-1255): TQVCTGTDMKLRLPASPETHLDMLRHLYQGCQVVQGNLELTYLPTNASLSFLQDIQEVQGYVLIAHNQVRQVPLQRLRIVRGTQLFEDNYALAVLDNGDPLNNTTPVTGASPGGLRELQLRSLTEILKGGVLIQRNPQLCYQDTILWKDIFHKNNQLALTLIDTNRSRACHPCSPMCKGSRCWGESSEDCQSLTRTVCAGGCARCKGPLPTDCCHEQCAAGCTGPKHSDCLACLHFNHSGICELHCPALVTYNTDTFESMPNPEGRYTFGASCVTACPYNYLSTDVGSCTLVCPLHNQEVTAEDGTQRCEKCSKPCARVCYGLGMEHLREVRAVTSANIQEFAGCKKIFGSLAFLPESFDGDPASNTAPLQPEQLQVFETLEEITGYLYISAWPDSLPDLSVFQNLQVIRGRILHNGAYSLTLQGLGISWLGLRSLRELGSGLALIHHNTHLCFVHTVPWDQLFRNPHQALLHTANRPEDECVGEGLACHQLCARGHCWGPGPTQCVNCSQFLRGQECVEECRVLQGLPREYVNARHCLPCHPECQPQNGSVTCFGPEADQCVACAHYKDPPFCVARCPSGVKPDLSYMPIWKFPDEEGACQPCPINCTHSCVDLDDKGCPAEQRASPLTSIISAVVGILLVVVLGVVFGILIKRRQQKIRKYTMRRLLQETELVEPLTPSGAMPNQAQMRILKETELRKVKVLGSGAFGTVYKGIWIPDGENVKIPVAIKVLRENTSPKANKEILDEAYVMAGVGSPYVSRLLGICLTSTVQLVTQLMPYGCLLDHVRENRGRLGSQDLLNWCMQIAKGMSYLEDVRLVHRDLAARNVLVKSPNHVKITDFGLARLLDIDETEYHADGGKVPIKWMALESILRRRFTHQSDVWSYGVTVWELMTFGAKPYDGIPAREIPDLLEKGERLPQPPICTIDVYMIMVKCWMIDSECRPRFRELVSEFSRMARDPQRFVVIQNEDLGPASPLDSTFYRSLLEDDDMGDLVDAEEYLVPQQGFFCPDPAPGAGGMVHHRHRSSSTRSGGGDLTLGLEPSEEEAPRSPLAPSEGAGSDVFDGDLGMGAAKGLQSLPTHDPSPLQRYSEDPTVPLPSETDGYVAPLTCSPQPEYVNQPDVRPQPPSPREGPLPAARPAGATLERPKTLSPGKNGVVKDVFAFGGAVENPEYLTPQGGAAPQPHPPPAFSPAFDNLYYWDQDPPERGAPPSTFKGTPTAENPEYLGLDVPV

A word on the inhibition: it is the share of the control response that was lost under treatment. The compound `CN(C(=O)CN1CCOCC1)c1ccc2sc3c(-c4cccc5c(=O)cc(N6CC7CCC(C6)O7)oc45)cccc3c2c1` [NU5455] showed an inhibition at 1 µM of 5.6%.
